From ChEMBL document CHEMBL3593212, “Synthesis and evaluation of novel 1H-pyrrolo[2,3-b]pyridine-5-carboxamide derivatives as potent and orally efficacious immunomodulators targeting JAK3” (Bioorg Med Chem, 2015)

Columns and labels:
[1] = target: Tyrosine-protein kinase JAK2 (Homo sapiens, UniProt O60674); experiment: Inhibition of human JAK2 kinase domain using biotin-Lyn-substrate-2 as substrate incubated for 1 hr by ELISA method
[2] = target: Tyrosine-protein kinase JAK1 (Homo sapiens, UniProt P23458); experiment: Inhibition of human JAK1 kinase domain using biotin-Lyn-substrate-2 as substrate incubated for 1 hr by ELISA method
Tyrosine-protein kinase JAK1, sequence (P23458 whole entry, the tested form may be a part): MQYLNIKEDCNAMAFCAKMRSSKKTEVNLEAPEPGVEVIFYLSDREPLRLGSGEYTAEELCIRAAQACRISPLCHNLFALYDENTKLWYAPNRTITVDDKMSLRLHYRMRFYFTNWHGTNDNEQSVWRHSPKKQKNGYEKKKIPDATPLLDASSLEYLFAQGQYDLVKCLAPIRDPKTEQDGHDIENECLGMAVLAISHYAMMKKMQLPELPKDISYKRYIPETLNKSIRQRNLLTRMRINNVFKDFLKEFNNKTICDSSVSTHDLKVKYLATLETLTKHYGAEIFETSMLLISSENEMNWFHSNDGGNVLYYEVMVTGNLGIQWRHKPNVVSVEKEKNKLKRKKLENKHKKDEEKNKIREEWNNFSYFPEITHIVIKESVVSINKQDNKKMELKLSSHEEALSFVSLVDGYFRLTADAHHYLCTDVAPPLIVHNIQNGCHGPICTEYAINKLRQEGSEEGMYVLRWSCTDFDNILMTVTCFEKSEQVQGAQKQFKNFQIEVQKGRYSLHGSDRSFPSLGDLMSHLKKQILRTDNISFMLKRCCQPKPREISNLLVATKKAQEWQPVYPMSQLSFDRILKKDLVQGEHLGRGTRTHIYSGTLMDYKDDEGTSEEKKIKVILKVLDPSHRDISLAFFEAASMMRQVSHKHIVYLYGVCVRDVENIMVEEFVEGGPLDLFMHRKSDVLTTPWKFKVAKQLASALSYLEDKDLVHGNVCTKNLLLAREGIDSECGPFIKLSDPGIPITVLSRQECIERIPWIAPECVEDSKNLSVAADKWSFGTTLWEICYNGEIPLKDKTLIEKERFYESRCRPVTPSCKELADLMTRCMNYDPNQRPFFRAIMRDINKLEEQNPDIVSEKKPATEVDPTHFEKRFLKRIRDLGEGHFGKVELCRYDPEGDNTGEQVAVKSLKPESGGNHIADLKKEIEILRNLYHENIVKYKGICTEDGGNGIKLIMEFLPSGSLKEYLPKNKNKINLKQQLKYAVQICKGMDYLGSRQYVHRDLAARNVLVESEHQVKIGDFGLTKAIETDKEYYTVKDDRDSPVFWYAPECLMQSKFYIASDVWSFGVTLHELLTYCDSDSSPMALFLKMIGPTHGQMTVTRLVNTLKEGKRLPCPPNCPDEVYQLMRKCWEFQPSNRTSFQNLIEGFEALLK

[3] = target: T1, Tyrosine-protein kinase JAK3 (Homo sapiens, UniProt P52333); experiment: Inhibition of human JAK3 kinase domain using biotin-Lyn-substrate-2 as substrate incubated for 1 hr by ELISA method
T1 sequence (P52333 whole entry): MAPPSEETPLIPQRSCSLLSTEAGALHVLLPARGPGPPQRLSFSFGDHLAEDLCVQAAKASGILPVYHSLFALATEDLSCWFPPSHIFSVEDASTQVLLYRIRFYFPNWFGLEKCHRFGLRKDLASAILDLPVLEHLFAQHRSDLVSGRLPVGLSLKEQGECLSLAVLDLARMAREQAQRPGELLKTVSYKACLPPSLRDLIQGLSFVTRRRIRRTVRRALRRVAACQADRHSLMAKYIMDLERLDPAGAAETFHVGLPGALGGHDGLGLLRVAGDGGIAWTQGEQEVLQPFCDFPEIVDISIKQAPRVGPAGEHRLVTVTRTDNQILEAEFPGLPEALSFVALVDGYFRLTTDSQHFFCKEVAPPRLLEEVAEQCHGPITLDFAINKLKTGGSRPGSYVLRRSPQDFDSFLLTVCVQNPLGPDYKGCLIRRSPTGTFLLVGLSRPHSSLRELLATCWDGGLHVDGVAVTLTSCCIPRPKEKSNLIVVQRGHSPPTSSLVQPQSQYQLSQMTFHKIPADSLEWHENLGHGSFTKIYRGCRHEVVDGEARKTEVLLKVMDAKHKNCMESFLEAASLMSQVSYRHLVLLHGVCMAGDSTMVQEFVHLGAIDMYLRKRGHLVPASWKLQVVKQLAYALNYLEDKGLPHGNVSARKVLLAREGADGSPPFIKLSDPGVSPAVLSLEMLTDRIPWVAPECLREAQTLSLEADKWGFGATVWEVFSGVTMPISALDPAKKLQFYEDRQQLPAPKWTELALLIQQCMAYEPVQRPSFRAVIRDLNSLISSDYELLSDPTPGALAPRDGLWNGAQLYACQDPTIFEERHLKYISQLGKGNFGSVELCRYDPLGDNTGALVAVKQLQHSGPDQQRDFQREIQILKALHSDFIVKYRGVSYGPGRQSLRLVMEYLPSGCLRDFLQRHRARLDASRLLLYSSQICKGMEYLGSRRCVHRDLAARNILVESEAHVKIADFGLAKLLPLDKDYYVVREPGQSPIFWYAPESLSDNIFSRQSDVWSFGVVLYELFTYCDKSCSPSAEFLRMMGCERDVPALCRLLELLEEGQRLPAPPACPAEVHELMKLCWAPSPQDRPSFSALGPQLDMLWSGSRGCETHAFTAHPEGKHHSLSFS

[4] = Inhibition of JAK1/JAK3 in Lewis rat splenocytes assessed as reduction in IL2-stimulated T-cell proliferation incubated for 3 days by alamar blue dye based fluorescence assay; details: 72 h
[5] = Effective permeability of the compound at pH 7.4 by PAMPA method; assay type: physicochemical; details: read-out: Peff
[6] = target: Voltage-gated inwardly rectifying potassium channel KCNH2 (Homo sapiens, UniProt Q12809)
Voltage-gated inwardly rectifying potassium channel KCNH2, sequence (Q12809 whole entry): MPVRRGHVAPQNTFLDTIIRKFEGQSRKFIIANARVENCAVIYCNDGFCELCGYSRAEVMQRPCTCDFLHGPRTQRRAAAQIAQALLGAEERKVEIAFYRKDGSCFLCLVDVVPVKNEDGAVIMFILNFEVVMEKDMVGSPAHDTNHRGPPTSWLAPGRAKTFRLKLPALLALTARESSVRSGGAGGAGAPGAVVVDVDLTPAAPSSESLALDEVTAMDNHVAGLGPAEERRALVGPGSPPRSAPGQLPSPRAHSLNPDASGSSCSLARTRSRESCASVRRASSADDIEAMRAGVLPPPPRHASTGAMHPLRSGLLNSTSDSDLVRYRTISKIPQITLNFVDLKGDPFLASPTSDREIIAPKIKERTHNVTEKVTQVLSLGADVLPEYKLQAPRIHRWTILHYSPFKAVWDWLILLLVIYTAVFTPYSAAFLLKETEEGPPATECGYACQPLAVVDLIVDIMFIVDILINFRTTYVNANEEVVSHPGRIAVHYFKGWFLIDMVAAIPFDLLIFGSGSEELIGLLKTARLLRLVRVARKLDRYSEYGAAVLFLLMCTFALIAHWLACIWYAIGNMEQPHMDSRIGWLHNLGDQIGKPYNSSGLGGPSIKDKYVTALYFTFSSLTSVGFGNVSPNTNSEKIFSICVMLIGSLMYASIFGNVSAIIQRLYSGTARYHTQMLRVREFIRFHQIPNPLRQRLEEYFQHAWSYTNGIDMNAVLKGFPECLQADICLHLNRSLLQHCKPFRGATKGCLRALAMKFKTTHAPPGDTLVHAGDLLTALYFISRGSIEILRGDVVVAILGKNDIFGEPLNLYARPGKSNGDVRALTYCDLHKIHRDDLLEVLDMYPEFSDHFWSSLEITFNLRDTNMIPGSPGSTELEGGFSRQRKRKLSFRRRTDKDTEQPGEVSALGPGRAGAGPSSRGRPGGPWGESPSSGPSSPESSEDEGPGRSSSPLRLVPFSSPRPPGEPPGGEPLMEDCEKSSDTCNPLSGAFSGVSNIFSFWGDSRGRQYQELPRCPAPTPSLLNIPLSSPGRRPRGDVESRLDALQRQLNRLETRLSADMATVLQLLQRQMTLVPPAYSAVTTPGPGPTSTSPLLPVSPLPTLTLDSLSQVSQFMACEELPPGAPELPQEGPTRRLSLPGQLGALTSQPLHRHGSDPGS
Description: Inhibition of human ERG expressed in CHOK1 cells incubated for 10 mins by Rb efflux assay

[7] = Intrinsic clearance in rat liver microsomes at 0.2 uM in presence of NADPH generating system by LC/MS/MS method; assay type: ADME; details: read-out: CLH

Tyrosine-protein kinase JAK2, sequence (O60674 whole entry, the tested form may be a part): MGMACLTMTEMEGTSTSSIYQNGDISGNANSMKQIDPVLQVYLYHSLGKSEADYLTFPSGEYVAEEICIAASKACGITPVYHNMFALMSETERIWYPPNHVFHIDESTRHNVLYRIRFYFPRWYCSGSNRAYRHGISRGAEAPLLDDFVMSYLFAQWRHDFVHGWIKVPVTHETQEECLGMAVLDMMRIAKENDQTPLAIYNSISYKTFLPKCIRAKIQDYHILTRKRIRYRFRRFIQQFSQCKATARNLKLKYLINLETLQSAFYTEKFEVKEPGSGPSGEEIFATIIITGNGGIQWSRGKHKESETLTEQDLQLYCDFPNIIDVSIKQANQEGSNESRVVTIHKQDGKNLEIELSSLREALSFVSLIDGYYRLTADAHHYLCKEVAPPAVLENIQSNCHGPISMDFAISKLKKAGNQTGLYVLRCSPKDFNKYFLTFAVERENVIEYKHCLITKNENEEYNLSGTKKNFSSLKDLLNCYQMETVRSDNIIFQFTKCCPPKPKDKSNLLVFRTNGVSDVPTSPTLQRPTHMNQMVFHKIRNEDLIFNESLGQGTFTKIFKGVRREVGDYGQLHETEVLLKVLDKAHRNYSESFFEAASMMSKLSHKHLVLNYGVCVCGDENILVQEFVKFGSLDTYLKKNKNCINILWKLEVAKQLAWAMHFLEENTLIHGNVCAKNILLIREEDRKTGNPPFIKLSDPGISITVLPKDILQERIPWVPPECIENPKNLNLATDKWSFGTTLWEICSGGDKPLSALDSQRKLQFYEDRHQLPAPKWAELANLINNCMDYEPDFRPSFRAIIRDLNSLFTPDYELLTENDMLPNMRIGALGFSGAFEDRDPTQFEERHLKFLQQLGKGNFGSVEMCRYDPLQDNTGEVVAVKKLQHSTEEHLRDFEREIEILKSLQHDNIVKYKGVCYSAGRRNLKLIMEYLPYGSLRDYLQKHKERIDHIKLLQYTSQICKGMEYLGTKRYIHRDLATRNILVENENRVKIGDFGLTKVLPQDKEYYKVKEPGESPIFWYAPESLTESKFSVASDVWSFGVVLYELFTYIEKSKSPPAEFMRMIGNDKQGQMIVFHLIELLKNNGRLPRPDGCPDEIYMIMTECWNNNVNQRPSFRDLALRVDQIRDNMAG

| Compound | IC50 [1] [nM] | IC50 [2] [nM] | IC50 [3] [nM] | Papp [5] [×10⁻⁶ cm/s] | CLint scaled at 0.2 µM [7] [mL/min/kg] | IC50 [4] [nM] | IC50 [6] [nM] |
| --- | --- | --- | --- | --- | --- | --- | --- |
| N#CCC(=O)N1CCC(Nc2c(C(N)=O)cnc3[nH]ccc23)CC1 | 200 | 110 | 46 | – | – | – | – |
| NC(=O)c1cnc2[nH]ccc2c1N[C@H]1CCCN(Cc2ccccc2)C1 | 640 | – | 130 | – | – | – | – |
| C[C@@H]1CCCC[C@@H]1Nc1c(C(N)=O)cnc2[nH]ccc12 | 30 | 47 | 5.1 | – | > 1000 | 86 | – |
| N#Cc1ccc(N2CC[C@H](Nc3c(C(N)=O)cnc4[nH]ccc34)[C@H](F)C2)nc1 | 17 | 27 | 1.7 | 5 | – | 44 | > 100000 |
| CS(=O)(=O)N1CCC(Nc2c(C(N)=O)cnc3[nH]ccc23)CC1 | 190 | – | 150 | – | – | – | – |
| CC(=O)N1CCC(Nc2c(C(N)=O)cnc3[nH]ccc23)CC1 | 640 | – | 340 | – | – | – | – |
| N#Cc1cccc(CN2CCC(Nc3c(C(N)=O)cnc4[nH]ccc34)CC2)c1 | 46 | – | 25 | – | – | – | – |
| CN1CCC(Nc2c(C(N)=O)cnc3[nH]ccc23)CC1 | 310 | 300 | 90 | – | – | – | – |
| NC(=O)c1cnc2[nH]ccc2c1N[C@@H]1CCCN(Cc2ccccc2)C1 | 430 | – | 240 | – | – | – | – |
| NC(=O)c1cnc2[nH]ccc2c1NC1CCN(Cc2ccccc2)CC1 | 84 | – | – | – | – | – | – |

Second part, led by results:

| IC50 [1] [nM] | IC50 [2] [nM] | IC50 [3] [nM] | Papp [5] [×10⁻⁶ cm/s] | CLint scaled at 0.2 µM [7] [mL/min/kg] | Compound | IC50 [4] [nM] | IC50 [6] [nM] |
| --- | --- | --- | --- | --- | --- | --- | --- |
| 100 | 180 | 9.2 | – | – | NC(=O)c1cnc2[nH]ccc2c1NC1CCN(c2ccc(CO)cn2)CC1 | – | – |
| 41 | 58 | 5.2 | – | – | NC(=O)c1ccc(N2CCC(Nc3c(C(N)=O)cnc4[nH]ccc34)CC2)nc1 | – | – |
| 12 | 22 | 1.2 | < 0.2 | – | N#Cc1ccc(N2CCC(Nc3c(C(N)=O)cnc4[nH]ccc34)CC2)nn1 | 140 | > 100000 |
| 49 | 50 | – | – | 262 | N#Cc1ccc(N2CCC(Nc3c(C(N)=O)cnc4[nH]ccc34)CC2)cc1 | – | – |
| 14 | 11 | 0.78 | – | – | C[C@H]1CN(c2ccc(C#N)cn2)CC[C@H]1Nc1c(C(N)=O)cnc2[nH]ccc12 (relative stereo) | – | – |
| 41 | 35 | 3.6 | < 0.2 | – | N#Cc1cnc(N2CCC(Nc3c(C(N)=O)cnc4[nH]ccc34)CC2)cn1 | 77 | > 100000 |
| 18 | 16 | 1.3 | 26 | 204 | N#Cc1ccc(N2CCC(Nc3c(C(N)=O)cnc4[nH]ccc34)CC2)nc1 | 27 | – |
| 370 | – | 25 | – | – | NC(=O)c1cnc2[nH]ccc2c1NC1CCN(c2ccc(C(F)(F)F)cn2)CC1 | – | – |
